Laboratory results published in US20240091235A1, “USE AS SELECTIVE AGONIST OF MELANOCORTIN-4 RECEPTOR” (priority 2020, published 2024).
Structures can show the parent of a compound that is named as a salt.

Legend:
MC4R [1] = target: T1, MC4R (Homo sapiens, UniProt P32245); test: cAMP Hunter Gs-coupled cAMP assay (CHO-K1 cell line), MC4R; assay type: cell-based; design: expressed in transfected cells; host or cells: CHO-K1 (cAMP Hunter Gs-coupled cell line)
Procedure: (§1) After cAMP Hunter Gs-coupled cell lines (CHO-K1 cell line) in which each of MC1R and MC4R was overexpressed were established so that the increase in the cAMP level in cells due to agonist reaction was measurable, the cells were inoculated into each well of a white cell culture plate and incubated for 24 hours in a 37° C. incubator in the presence of 5% CO2. After the incubation, the medium was removed, and 15 μL of a 2:1 HBBS/10 mM HEPES:cAMP XS+Ab reagent was added. After 5 μL of the sample diluted 4 times with buffer was added, the vehicle concentration was set to 1%, and the MC4R agonist compound diluted at each step concentration was added, followed by reaction at 37° C. for 30 minutes. The activity (%) of each agonist compound is expressed as 100%×(average RLU value of sample−average RLU value of vehicle control)/(average RLU value of max control−average RLU value of vehicle control), and the value was analyzed by CBIS data analysis suite (ChemInnovation, CA).
Target sequence in this assay (P32245 whole entry): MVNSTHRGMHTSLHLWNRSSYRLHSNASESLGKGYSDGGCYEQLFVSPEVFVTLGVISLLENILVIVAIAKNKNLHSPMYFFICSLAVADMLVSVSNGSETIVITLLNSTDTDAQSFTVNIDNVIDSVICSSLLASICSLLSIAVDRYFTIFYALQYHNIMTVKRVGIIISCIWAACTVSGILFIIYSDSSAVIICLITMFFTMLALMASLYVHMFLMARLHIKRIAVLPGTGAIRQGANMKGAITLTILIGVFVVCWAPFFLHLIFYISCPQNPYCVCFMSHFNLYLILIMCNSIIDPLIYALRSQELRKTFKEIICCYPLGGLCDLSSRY

MC1R [2] = target: T2, MC1R (Homo sapiens, UniProt Q01726); test: Binding affinity, membranes of CHO-K1 cell line expressing human recombinant MC1R; design: expressed in transfected cells; host or cells: CHO-K1 (membranes); conditions: 25 mM HEPES-KOH buffer pH 7.0
Procedure: In a 96-well cell culture plate, the cell line membrane and 25 mM HEPES-KOH adsorption buffer (pH 7.0) containing the MCR agonist diluted at each step concentration were added, and the reaction was carried out.
Target sequence in this assay (Q01726 whole entry): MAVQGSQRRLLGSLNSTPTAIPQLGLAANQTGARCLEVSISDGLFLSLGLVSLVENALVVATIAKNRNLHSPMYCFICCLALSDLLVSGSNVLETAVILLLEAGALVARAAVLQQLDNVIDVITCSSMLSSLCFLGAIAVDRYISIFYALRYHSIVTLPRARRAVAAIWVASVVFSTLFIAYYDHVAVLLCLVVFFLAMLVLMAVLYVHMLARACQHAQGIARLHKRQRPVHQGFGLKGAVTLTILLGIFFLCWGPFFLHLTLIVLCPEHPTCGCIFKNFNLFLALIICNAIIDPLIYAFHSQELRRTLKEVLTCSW

[3] = target: T3, melanocortin-4 receptor (MC4R) (Homo sapiens, UniProt P32245); test: Luciferase assay (CRE-LUC), HEK MC4R-Luc cells; assay type: cell-based
T3 construct: expressed in transfected cells

[4] = mouse, in vivo
Procedure: With respect to skin pigmentation—which is an off-target effect of MC4R agonist, the distribution and accumulation of the drug were evaluated by measuring the drug concentration in the skin and plasma after repeated administration in a db/db mouse model lacking leptin receptor.

[5] = system: skin and skin hair pigmentation; test: Skin pigmentation in repeated toxicity test in monkeys; assay type: in vivo; conditions: repeatedly administered for 2 weeks, FIG. 2
Procedure: In order to confirm the possibility of occurrence of skin pigmentation—which is an off-target effect of MC4R agonist, pigmentation patterns in the skin and skin hair were measured in a repeated toxicity test in monkeys, and the results are represented in FIG. 2.

MC4R [6] = target: T1, MC4R; test: Pathhunter eXpress β-arrestin assay (U2OS cell line), MC4R; assay type: cell-based; design: expressed in transfected cells; host or cells: U2OS (Pathhunter eXpress β-arrestin cell line)
From the text: (§2) A Pathhunter eXpress β-arrestin cell line (U2OS cell line) in which Prolink (PK)-tagged MC1R and MC4R, and enzyme acceptor (EA)-tagged β-arrestin were expressed together was established. When the MCR-PK portion of this cell line is activated, β-arrestin-EA is mobilized, and enzyme acceptor (EA) and Prolink (PK), which are the β-galactosidase enzyme fragments, interact. The activated enzyme hydrolyzes the substrate by β-galactosidase activity to produce a chemiluminescent signal, so that the activity can be measured. After the Pathhunter eXpress β-arrestin cell line (U2OS cell line) was incubated, the cells were inoculated into each well of the cell culture plate and incubated for 48 hours in a 37° C. incubator in the presence of 5% CO2. After the incubation, 5 μL of the sample diluted 5 times with buffer was added, the vehicle concentration was set to 1%, and the MC4R agonist compound diluted at each step concentration was added, followed by reaction at 37° C. for 90 minutes. The activity (%) of each agonist compound is expressed as 100%×(average RLU value of sample−average RLU value of vehicle control)/(average maximum value of control ligand−average RLU value of vehicle control), and the value was analyzed by CBIS data analysis suite (ChemInnovation, CA).
Target sequence in this assay (P32245 whole entry): as the sequence (P32245 whole entry) above
Target sequence in this assay (P32121 whole entry partner): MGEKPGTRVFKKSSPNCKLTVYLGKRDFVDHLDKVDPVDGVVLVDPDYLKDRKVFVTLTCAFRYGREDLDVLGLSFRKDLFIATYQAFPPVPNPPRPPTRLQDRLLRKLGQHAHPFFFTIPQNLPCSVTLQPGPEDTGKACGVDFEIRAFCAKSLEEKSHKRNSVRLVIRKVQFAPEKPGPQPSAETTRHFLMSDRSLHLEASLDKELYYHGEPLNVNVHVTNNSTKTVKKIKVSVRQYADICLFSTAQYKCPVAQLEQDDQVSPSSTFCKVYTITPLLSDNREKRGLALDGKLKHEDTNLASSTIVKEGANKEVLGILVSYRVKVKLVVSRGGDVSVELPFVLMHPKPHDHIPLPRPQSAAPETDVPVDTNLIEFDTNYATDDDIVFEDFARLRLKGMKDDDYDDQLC

MC4R [7] = target: T1, MC4R; test: Binding affinity, membranes of HEK-293 cell lines expressing MC4R; design: expressed in transfected cells
Procedure: After the CHO-K1 cell line expressing human recombinant MC1R and the HEK-293 cell lines expressing MC4R were established, membranes were collected from each cell line. In a 96-well cell culture plate, the cell line membrane and 25 mM HEPES-KOH adsorption buffer (pH 7.0) containing the MCR agonist diluted at each step concentration were added, and the reaction was carried out. EC50 was calculated as a concentration that induces 50% of the maximum binding that can be induced by each agonist, and the results are represented in Table 2.
Target sequence in this assay (P32245 whole entry): as the sequence (P32245 whole entry) above

MC1R [8] = target: T2, MC1R; test: Pathhunter eXpress β-arrestin assay (U2OS cell line), MC1R; assay type: cell-based; design: expressed in transfected cells; host or cells: U2OS (Pathhunter eXpress β-arrestin cell line); conditions: 90 minutes at 37° C.
From the text: as §2
Target sequence in this assay (Q01726 whole entry): as the sequence (Q01726 whole entry) above
Target sequence in this assay (P32121 whole entry partner): as the sequence (P32121 whole entry partner) above

[9] = target: T4, melanocortin-1 receptor (MC1R) (Homo sapiens, UniProt Q01726); test: Luciferase assay (CRE-LUC), HEK MC1R-Luc cells; assay type: cell-based; conditions: luminescence relative to 10 μM NDP-α-MSH
T4 construct: expressed in transfected cells
Procedure: In order to measure the agonist ability for melanocortin-1 receptor (MC1R) and melanocortin-4 receptor (MC4R), a cell line that permanently expresses MC1R, MC4R and the luciferase gene (CRE-LUC) under the control of CRE (cAMP response element) was established.
After a mammalian cell expression vector (pCDNA3 (Neo)) (Invitrogen) containing the MC1R and MC4R genes was prepared, human embryonic kidney (HEK) cell lines were transformed by using Lipofectamine 2000 (Invitrogen) together with a vector (pCRE-Luc)(Stratagen) expressing a luciferase gene (CRE-LUC) under the control of a cAMP response element (CRE). […] Each well was treated with 50 μL of a Bright-Glo luciferase reagent (Promega) and left at room temperature for 15 minutes, and then the luminescence of each well was measured by using a luminometer (Victor).
HEK MC1R-Luc cells and HEK MC4R-Luc cells were added to each well of a 96-well luminometer cell culture plate (Costar) to a size of 2.5×10^4 cells in 100 μL of a culture medium and then incubated in a 37° C. incubator in the presence of 6% CO2 for 18 hours. […] Each well was treated with 50 μL of a Bright-Glo luciferase reagent (Promega) and left at room temperature for five minutes, and then the luminescence of each well was measured by using a luminometer (Victor). […] The measurements were measured using statistical software (Prizm).

MC1R [10] = target: T2, MC1R; test: cAMP Hunter Gs-coupled cAMP assay (CHO-K1 cell line), MC1R; assay type: cell-based; design: expressed in transfected cells; host or cells: CHO-K1 (cAMP Hunter Gs-coupled cell line); conditions: 30 minutes at 37° C.
Procedure: as §1
Target sequence in this assay (Q01726 whole entry): as the sequence (Q01726 whole entry) above

skin pigmentation = conditions: reported, Clement et al., Nature Medicine, 2018; cited from earlier work
[11] = ratio of EC50 in MC1R to EC50 in MC4R

T3 sequence (P32245 whole entry): as the sequence (P32245 whole entry) above
T4 sequence (Q01726 whole entry): as the sequence (Q01726 whole entry) above

EC50 (MC4R [1]; CHO-K1 cell line, 30 minutes at 37° C.) [nM]	Ratio MC1R/MC4R (cAMP) (MC4R [1]; [11])	EC50 (MC1R [2]) [nM]	EC50 ([3]; HEK MC4R-Luc cells, luminescence relative to 10 μM NDP-α-MSH) [nM]	Ratio MC1R/MC4R (Luciferase) [3, 11]	EC50 (MC4R [6]; U2OS cell line, 90 minutes at 37° C.) [nM]	Ratio MC1R/MC4R (β-Arrestin) (MC4R [6]; [11])	EC50 (MC4R [7]; HEK-293 membranes, 25 mM HEPES-KOH buffer pH 7.0) [nM]	Ratio MC1R/MC4R (Binding) (MC4R [7]; [11])	EC50 (MC1R [8]) [nM]	EC50 [9] [nM]	EC50 (MC1R [10]) [nM]	Structure (SMILES)	Accumulation of drug in the skin [4]	Pigmentation on the skin and skin hair [5]	Skin pigmentation in clinical trials (skin pigmentation)
16.3	5.21	310	0.434	5.76	5.14	37.98	62	5.00	195	2.5	84.8	CC(C)C(=O)N([C@H]1C[C@@H](C(=O)N2CCOCC2)N(C(=O)[C@@H]2CN(C(C)(C)C)C[C@H]2c2ccc(Cl)cc2)C1)[C@H]1CC[C@@H](C)CC1.Cl [Test Compound, N-((3S,5S)-1-((3S,4R)-1-(tert-butyl)-4-(4-chlorophenyl)pyrrolidine-3-carbonyl)-5-(morpholine-4-carbonyl)pyrrolidin-3-yl)-N-((1s,4R)-4-methylcyclohexyl)isobutyramide hydrochloride]	did not relatively accumulate in the skin	pigmentation did not appear on the skin and skin hair	–
–	–	–	–	–	–	–	–	–	–	–	–	CC(=O)N[C@@H](CCCNC(=N)N)C(=O)N[C@H]1CSSC[C@@H](C(N)=O)NC(=O)[C@H](Cc2c[nH]c3ccccc23)NC(=O)[C@H](CCCNC(=N)N)NC(=O)[C@@H](Cc2ccccc2)NC(=O)[C@H](Cc2c[nH]cn2)NC(=O)[C@@H](C)NC1=O [setmelanotide, Ac-RC[dA]H[dF]RWC-NH2 (disulfide) (AcOH salt)]	–	–	show skin pigmentation
